Legend:
[1] = test system: db/db mice; assay: Antidiabetic effects in db/db mice, four weeks of daily oral dosing; format: in vivo; conditions: for Glucose / Glucose (% of Control): 150 mg/kg daily oral, four weeks; for blood glucose: after four weeks of daily oral dosing (Compound AW, BH 150 mg/kg; pioglitazone 100 mg/kg)
Description: Db/db mice have a defect in leptin signaling, leading to hyperphagia, obesity and diabetes. Moreover, unlike ob/ob mice which have relatively robust islets, their insulin-producing pancreatic islet cells undergo failure during chronic hyperglycemia, so that they transition from hyperinsulinemia (associated with peripheral insulin resistance) to hypoinsulinemic diabetes.
Male db/db mice were given daily oral treatments with vehicle (0.75% hydroxypropylmethylcellulose) or antidiabetic compounds as indicated below. Blood samples were obtained via the retro-orbital sinus for serum chemistry analysis, or via the tail vein for glucose measurement with a test strip and glucometer.
The dose of pioglitazone used in this experiment was reported in the literature to be a maximally-effective dose for treatment of db/db mice (Shimaya et al. (2000), Metabolism 49:411-7).

[2] = test system: ob/ob mice; assay: Hyperglycemia, hyperlipidemia, fatty liver disease and weight gain in ob/ob obese diabetic mice, daily oral dosing; format: in vivo, C57BL/6 mice; conditions: for Free Fatty Acids ± SEM / Glucose ± SEM / Triglycerides ± SEM / ALT (U/L) ± SEM / AST (U/L) ± SEM / SDH (U/L) ± SEM: 4 weeks; for ALT (U/L) ± SEM / AST (U/L) ± SEM / SDH (U/L) ± SEM: serum
Description: Ob/ob mice have a defect in the gene for leptin, a protein involved in appetite regulation and energy metabolism, and are hyperphagic, obese, and insulin resistant. They develop hyperglycemia and fatty liver.

[3] = test system: ob/ob obese diabetic mice; assay: Acute hypoglycemic effect in ob/ob obese diabetic mice: Expt 2; format: in vivo; conditions: single oral dose 250 mg/kg
Procedure: Male ob/ob mice (50-55 grams; blood glucose ˜300 mg/dL) were divided into groups of five animals each, and given a single oral dose of test drug (250 mg/kg) suspended in 0.5% carboxymethylcellulose vehicle; a control group received oral vehicle alone.
Six hours after oral administration of test drugs or vehicle (control), blood samples were obtained from a tail vein and glucose content was determined with a glucometer.

[4] = test system: Zucker Diabetic Fatty (ZDF) rats; assay: Attenuation of cataractogenesis in Zucker Diabetic Fatty (ZDF) rats; format: in vivo; conditions: 100 mg/kg daily oral, 10 weeks
Description: Cataracts are one of the leading causes of progressive vision decline and blindness associated with ageing and diabetes, and the Zucker diabetic fatty (ZDF) model has many similarities with human cataractogenesis, including biochemical changes and oxidative stress in the lens. These rats, however, undergo cataractogenesis typically between 14-16 weeks of age.
Male ZDF rats and their aged-match Zucker lean (ZL) counterparts (fa/+ or +/+) were obtained from Genetic Models, Inc. (Indianapolis, Ind.) aged 12 weeks and acclimatized for 1 week prior to study. […] Treatment cohorts were given a daily oral dose of vehicle and 100 mg/kg of BI or BH for 10 weeks. […] At the end of the treatment period 100 μl of venous blood was collected (usually 10:00 A.M.) in a heparinized tube from the tail vein for serum chemistry analysis (Anilytics, Inc., Gaithersburg, Md.). […] Plasma insulin was measured by an electrochemiluminescent immunoassay, ECL (Origen Analyzer, Igen, Inc., Gaithersburg, Md.). The animals were sacrificed and tissues and/or organs (lens and liver) were extirpated, weighed (wet weight) and processed for biochemical analyses. Malondialdehyde (MDA), a major product of lipid peroxidation was assayed in lenses according to Ohkawa et al (1979), Analytical Biochem 95, 351-358).

[5] = test system: db/db mice; assay: Antidiabetic effects in db/db mice, second experiment, 8 weeks of treatment; format: in vivo; conditions: 20 mg/kg, 8 weeks of treatment
Description: Blood samples were obtained via the retro-orbital sinus for serum chemistry analysis, or via the tail vein for glucose measurement with a test strip and glucometer.
Groups consisted of 6-8 mice each.

[6] = test system: high fat-fed C57Bl/6J mice; assay: Circulating triglycerides, free fatty acids, insulin and leptin in high fat-fed C57Bl/6J mice; format: in vivo; conditions: after 2 weeks of drug treatments
Description: The high fat-fed mouse is a model for the hypertriglyceridemia and high circulating fatty acid levels, and the insulin and leptin resistance that are found in people at risk for and with obesity, diabetes, cardiovascular disease and other disorders. Male C57Bl/6J mice, approximately 8 weeks of age, were randomly assigned into groups of 6 animals. […] Mice were fed a high-fat diet (diet number D12451, containing 45% of calories as fat (Research Diets, New Brunswick, N.J.)) for 6 weeks. […]

[7] = 3 mg/kg/day, four week treatment period
[8] = 10 mg/kg/day, four week treatment period
[9] = 30 mg/kg/day, four week treatment period

## O=C(O)CCC(=O)c1cccc(OCc2c(F)cccc2F)c1 [Compound AW, 4-(3-(2,6-Difluorobenzyloxy)phenyl)-4-oxobutyric acid]
[1]
  Glucose: 313 ± 34 mg/dL
  Glucose (% of Control): 56 ± 6 % of Control
  blood glucose: significant reduction in blood glucose
[2]; [7]
  Mean body weight gain (grams): +7.3 grams
[2]; 10 mg/kg/day oral
  Free Fatty Acids ± SEM: 3697.4 ± 357.8 µmol/L
  Glucose ± SEM: 369.6 ± 62.5 mg/dL
  Triglycerides ± SEM: 115.6 ± 7.8 mg/dL
  ALT (U/L) ± SEM: 483.8 ± 81.9 U/L
  AST (U/L) ± SEM: 653.4 ± 104.8 U/L
  SDH (U/L) ± SEM: 626.8 ± 93.8 U/L
[2]; [8]
  Mean body weight gain (grams): +6.7 grams
[2]; 30 mg/kg/day oral
  Free Fatty Acids ± SEM: 2552.2 ± 334.7 µmol/L
  Glucose ± SEM: 280.2 ± 46.7 mg/dL
  Triglycerides ± SEM: 96.4 ± 7.3 mg/dL
  ALT (U/L) ± SEM: 320.2 ± 46.2 U/L
  AST (U/L) ± SEM: 399.6 ± 74.4 U/L
  SDH (U/L) ± SEM: 333.0 ± 66.9 U/L
[2]; [9]
  Mean body weight gain (grams): +6.4 grams
[2]; 100 mg/kg/day oral
  Free Fatty Acids ± SEM: 1476 ± 82.1 µmol/L
  Glucose ± SEM: 286 ± 47.1 mg/dL
  Triglycerides ± SEM: 66.2 ± 5.9 mg/dL
  ALT (U/L) ± SEM: 202.8 ± 38.0 U/L
  AST (U/L) ± SEM: 143.8 ± 30.4 U/L
  SDH (U/L) ± SEM: 121.2 ± 14.1 U/L
[2]; 100 mg/kg/day, four week treatment period
  Mean body weight gain (grams): +3.4 grams
[2]; 150 mg/kg/day oral
  Free Fatty Acids ± SEM: 1481 ± 158.8 µmol/L
  Glucose ± SEM: 188.6 ± 28.8 mg/dL
  Triglycerides ± SEM: 72.6 ± 5.6 mg/dL
  ALT (U/L) ± SEM: 149.2 ± 15.6 U/L
  AST (U/L) ± SEM: 185.8 ± 26.0 U/L
  SDH (U/L) ± SEM: 166.2 ± 20.0 U/L
[2]; 150 mg/kg/day, four week treatment period
  Mean body weight gain (grams): +4.6 grams
[2]; 300 mg/kg/day oral
  Free Fatty Acids ± SEM: 1452.6 ± 111.1 µmol/L
  Glucose ± SEM: 128.4 ± 8.8 mg/dL
  Triglycerides ± SEM: 63.6 ± 3.4 mg/dL
  ALT (U/L) ± SEM: 188.2 ± 10.3 U/L
  AST (U/L) ± SEM: 335.4 ± 44.8 U/L
  SDH (U/L) ± SEM: 207.0 ± 29.3 U/L
[2]; 300 mg/kg/day, four week treatment period
  Mean body weight gain (grams): −0.7 grams
[2]; daily oral doses, compared with pioglitazone and rosiglitazone
  blood glucose: reduction in blood glucose comparable to that achieved with pioglitazone and rosiglitazone
[2]; daily treatment for 4 weeks
  liver fat droplets (liver histology): marked reduction in liver fat droplets
[2]; doses of 100 to 300 mg/kg/day, versus comparators at their optimum antihyperglycemic doses
  serum triglycerides and fatty acids: reduced serum triglycerides and fatty acids better than did either rosiglitazone or pioglitazone
[2]; doses ranging from 30 mg/kg/day to 300 mg/kg/day
  serum liver enzymes (ALT, AST, SDH): dose-dependent decrease in serum liver enzymes
[2]; four week treatment period
  weight gain relative to vehicle-treated mice: dose-dependent attenuation of weight gain
[3]
  Blood Glucose after 6 hours: 143 ± 15 mg/dL

## O=C(O)CCC(=O)c1cccc(OCC2CC2)c1 [Compound BH, 4-(3-((Cyclopropyl)-methoxy)phenyl)-4-oxobutyric acid]
[4]
  % Protection Left Eye: 33%
  % Protection Right Eye: 17%
  Cataract Formation Left Eye: 4/6
  Cataract Formation Right Eye: 5/6
[4]; means ± SEM
  Lenticular MDA: 1.9 ± 0.2 nmol/g lens
  Size (mm) Left Lens: 2.5 ± 0.3 mm
  Size (mm) Right Lens: 2.1 ± 0.4 mm
  Weight (mg) Left Lens: 27.0 ± 7.2 mg
  Weight (mg) Right Lens: 20.0 ± 6.6 mg
[1]
  Glucose: 229 ± 49 mg/dL
  Glucose (% of Control): 41 ± 9 % of Control
  blood glucose: significant reduction in blood glucose

## CN(CCOc1ccc(CC2SC(=O)NC2=O)cc1)c1ccccn1 (centres unmarked) [Rosiglitazone, rosiglitazone, reference compound]
[5]
  Glucose: 343 ± 38 mg/dL
  Triglycerides: 89 ± 16 mg/dL
[2]; 1 mg/kg/day oral
  Free Fatty Acids ± SEM: 2090.75 ± 67.7 µmol/L
  Glucose ± SEM: 142.75 ± 8.8 mg/dL
  Triglycerides ± SEM: 109.75 ± 4.4 mg/dL
[2]; 1 mg/kg/day, four week treatment period
  Mean body weight gain (grams): +8.2 grams
[2]; 3 mg/kg/day oral
  Free Fatty Acids ± SEM: 2317.6 ± 85.3 µmol/L
  Glucose ± SEM: 190.2 ± 12.7 mg/dL
  Triglycerides ± SEM: 107.8 ± 3.8 mg/dL
[2]; [7]
  Mean body weight gain (grams): +8.5 grams
[2]; 10 mg/kg/day oral
  Free Fatty Acids ± SEM: 2606.4 ± 139.2 µmol/L
  Glucose ± SEM: 188.2 ± 21.4 mg/dL
  Triglycerides ± SEM: 111.2 ± 7.5 mg/dL
[2]; [8]
  Mean body weight gain (grams): +11.0 grams
[2]; 30 mg/kg/day oral
  Free Fatty Acids ± SEM: 1983.4 ± 66.1 µmol/L
  Glucose ± SEM: 174.6 ± 11.5 mg/dL
  Triglycerides ± SEM: 95.2 ± 4.8 mg/dL
[2]; [9]
  Mean body weight gain (grams): +12.0 grams
[6]; 1 mg/kg oral gavage
  Free Fatty Acids: 1537 ± 256.3 µmol/L
  Triglycerides: 76.6 ± 16.5 mg/dL
[6]; 3 mg/kg oral gavage
  Free Fatty Acids: 1833.2 ± 169.8 µmol/L
  Triglycerides: 103.2 ± 10.8 mg/dL
[6]; 10 mg/kg oral gavage
  Free Fatty Acids: 1810.3 ± 595 µmol/L
  Triglycerides: 129.5 ± 48.7 mg/dL
[6]; 100 mg/kg oral gavage
  Free Fatty Acids: 1568.5 ± 197 µmol/L
  Triglycerides: 88 ± 7.2 mg/dL

— patent US6924314B2, “Compounds for the treatment of metabolic disorders” (Wellstat Therapeutics Corporation, priority 2001, dated 2005)
